These results are taken from US12678453B2, “Aerosolized formulations of HIV protease inhibitors for the treatment of airway reflux” (The Medical College of Wisconsin, Inc., priority 2020, dated 2026).

Data set [1] deals with T1, porcine pepsin (Sus scrofa, UniProt P00791).
T1 construct: purchased Worthington (Lakewood, NJ)
Nature of the data set: competitive binding assay (fluorescence polarization, pepstatin-Alexa647 probe). The note with it: 100 nM pepstatin-Alexa647, 0.03U/ul pepsin, 37.5% DMSO; FIG. 3A. From the text: (§1) Fluorescent polarization assays were developed to test compound binding and inhibition of pepsin (FIG. 1). A competitive binding assay was developed using pepstatin, a known inhibitor of pepsin with subnanomolar affinity^91 (Roberts 2003). This binding assay measures the relative binding affinity but not the enzymatic inhibition of compounds. Thus, a separate peptic activity assay was developed, which uses fluorescently labelled alpha casein as substrate. Both assays are based on the principle of fluorescence polarization (FP), which holds that as the molecular size of a fluorescent species is altered through dissociation/breakdown or association/binding events, the degree of depolarization of plane polarized light changes accordingly, directly affecting the FP value.^92 (Lea 2011). In the assays used herein, millipolarization (mP) decreases as casein-Alexa647 is degraded by pepsin and increases with binding of pepsin to pepstatin-Alexa647.
(§2) Assays were performed in 20 ul volumes in 384-well black optical plates (Nunc, Roskilde, DK). Pepstatin dose response curves were used to optimize pepsin/inhibitor concentrations and assay incubation times. Dose response was performed using 0.3-1000 uM unlabeled pepstatin with 100-500 nM pepstatin-Alexa647 probe, 0.003-3U/μl porcine pepsin (Worthington, Lakewood, NJ), and 10-37% dimethyl sulfoxide (HIV protease inhibitor diluent) in 0.1M HCl, pH1+0.01% Tween-20. Reagents were combined (with pepsin added last) in 50% of the final reaction volume for mixing and immediately read on a BioTek Cytation (BioTek Instruments, Winooski, VT) with far-red FP filter cube at excitation/emission of […] for five minutes, in at least triplicate. Averaged polarization values of replicate reads were plotted against probe or labeled pepstatin concentrations in GraphPad Prism 8 (La Jolla, CA). Reagent concentrations yielding greatest dynamic range were selected for the assay. The peptic activity assay was optimized similarly using casein-Alexa647 probe in 0.1M HCl, pH1+0.01% Tween-20. Reagents were combined (adding pepsin last) and read immediately at minimal intervals (<2 minutes apart) over 30 minutes. The assay was performed in triplicate and mean polarization value was plotted over time.
HIV protease inhibitors were dissolved in DMSO. Amprenavir, ritonavir, lopinavir, saquinavir mesylate, nelfinavir mesylate hydrate, darunavir ethanolate, indinavir sulfate salt hydrate were obtained from Sigma-Aldrich. […] Half-maximal inhibitory concentration (IC50) were calculated from kinetic traces analyzed using an online tool (icekat.herokuapp.com/icekat, O1p 2019^95). Percent bound and percent activity were calculated by normalization to the measured polarization value without HIV protease inhibitor compound. […]

For data set [2] the following is noted: known clinical profile; cited from earlier work.
In data set [3] the target is T1, porcine pepsin. The experiment in a line: peptic activity assay (fluorescence polarization, casein-Alexa647 substrate). The settings on record: for inhibition of pepsin activity: 200 nM casein-Alexa647, 0.01 U/μL pepsin, 5% DMSO, FIG. 3B; for IC50 for pepsin: bind to and inhibit pepsin, numbers only in FIG. 3. The class given is biochemical.
Source text: as §1
Casein was labeled as described by Jolley (1996)^93 using a 2.5 ug/mg label to protein ratio. Specifically, 200 ul 10 mg/ml bovine alpha casein (C6780 Sigma Aldrich, St. Louis, MO) in 0.1M sodium bicarbonate was incubated with 5 ul 1 mg/ml Alexa Fluor 647 Carboxylic Acid, Succinimidyl Ester (in DMSO; A-20106 ThermoFisher Scientific, Waltham, MA) for 15 minutes at room temperature. The mixture was applied to a Sephadex G-25 column (90×5 mm) in a glass Pasteur pipette. Elution was performing using D-PBS pH7.4 (ThermoFisher Scientific) containing 0.1% sodium azide. The fast-moving band containing casein-bound fluorophore was collected in a volume of approximately 0.4 ml. Concentration of resultant probe (casein-Alexa647 in PBS-azide) was estimated via spectrophotometry using Beer's law (Implen Nanophotometer, Implen, Inc. Westlake Village, CA). Probe was aliquoted and stored at −20° C. until use.
as §2
HIV protease inhibitors were dissolved in DMSO. […] Compounds were tested under optimized assay conditions over a range of three logs concentration in triplicate and plotted using GraphPad Prism 8. Half-maximal inhibitory concentration (IC50) were calculated from kinetic traces analyzed using an online tool (icekat.herokuapp.com/icekat, O1p 2019^95). Percent bound and percent activity were calculated by normalization to the measured polarization value without HIV protease inhibitor compound.
Our team developed and optimized two high-throughput screening (HTS) assays to identify compounds that are specific and sensitive inhibitors of pepsin (FIG. 1). The first assay is a binding assay that measures the ability of a compound to compete with fluorescently labeled pepstatin for its binding site on pepsin.
(Polarisation of emitted light reports the rotation of a fluorescent probe.)

“Also recorded” adds a separate entry of the source.

T1 sequence (P00791 60-385): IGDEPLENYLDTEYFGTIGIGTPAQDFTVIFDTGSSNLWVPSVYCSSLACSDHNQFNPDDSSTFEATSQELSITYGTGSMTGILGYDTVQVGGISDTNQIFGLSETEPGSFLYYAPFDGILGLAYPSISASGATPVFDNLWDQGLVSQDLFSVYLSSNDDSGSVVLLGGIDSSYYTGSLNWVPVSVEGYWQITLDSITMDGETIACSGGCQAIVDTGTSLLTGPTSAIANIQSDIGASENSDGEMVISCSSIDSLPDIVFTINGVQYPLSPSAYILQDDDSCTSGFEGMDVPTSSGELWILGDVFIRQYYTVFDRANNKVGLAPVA

Turning to `CC(C)(C)NC(=O)[C@@H]1C[C@@H]2CCCC[C@@H]2CN1C[C@@H](O)[C@H](Cc1ccccc1)NC(=O)[C@H](CC(N)=O)NC(=O)c1ccc2ccccc2n1` [saquinavir, (2S)—N-[(2S,3R)-4-[(3 S,4aS,8aS)-3-(tert-butylcarbamoyl)-3,4,4a,5,6,7,8,8a-octahydro-1H-isoquinolin-2-yl]-3-hydroxy-1-phenylbutan-2-yl]-2-(quinoline-2-carbonylamino)butanediamide], at porcine pepsin [1], the “competitive binding to pepsin” value is listed as “competitive binding to pepsin”. For the same compound, the “side effects / tolerability” value in data set [2] is “can cause QT prolongation, heart block, high blood lipids, and liver problems”. In addition, on porcine pepsin [3], the “inhibition of pepsin activity” value is recorded as “inhibition of pepsin activity” and the IC50 for pepsin result is given as “low micromolar range”.
With `CC(C)CN(C[C@@H](O)[C@H](Cc1ccccc1)NC(=O)O[C@H]1CCOC1)S(=O)(=O)c1ccc(N)cc1` [amprenavir, [(3S)-oxolan-3-yl] N-[(2S,3R)-4-[(4-aminophenyl)sulfonyl-(2-methylpropyl)amino]-3-hydroxy-1-phenylbutan-2-yl]carbamate], the “competitive binding to pepsin” value on porcine pepsin [1] was “competitive binding to pepsin”. Besides, the “side effects / tolerability” value in data set [2] was “minimal side effects such as diarrhea, nausea and vomiting”. At porcine pepsin [3], the “inhibition of pepsin activity” value is “inhibition of pepsin activity” and the IC50 for pepsin result is “low micromolar range”.
As to `CC(C)c1nc(CN(C)C(=O)N[C@H](C(=O)N[C@@H](Cc2ccccc2)C[C@H](O)[C@H](Cc2ccccc2)NC(=O)OCc2cncs2)C(C)C)cs1` [ritonavir, 1,3-thiazol-5-ylmethyl N-[(2S,3 S,5S)-3-hydroxy-5-[[(2S)-3-methyl-2-[[methyl-[(2-propan-2-yl-1,3-thiazol-4-yl)methyl]carbamoyl]amino]butanoyl]amino]-1,6-diphenylhexan-2-yl]carbamate], the “competitive binding to pepsin” value on porcine pepsin [1] was “competitive binding to pepsin”. The “side effects / tolerability” value in data set [2] is “minimal side effects such as diarrhea, nausea and vomiting”. Besides, the “inhibition of pepsin activity” value against porcine pepsin [3] is recorded as “inhibition of pepsin activity”.
For `CC(C)CN(C[C@@H](O)[C@H](Cc1ccccc1)NC(=O)O[C@H]1CO[C@H]2OCC[C@H]21)S(=O)(=O)c1ccc(N)cc1` [darunavir, [(3a S,4R,6aR)-2,3,3a,4,5,6a-hexahydrofuro[2,3-b]furan-4-yl] N-[(2S,3R)-4-[(4-aminophenyl)sulfonyl-(2-methylpropyl)amino]-3-hydroxy-1-phenylbutan-2-yl]carbamate], the “competitive binding to pepsin” value on porcine pepsin [1] is “competitive binding to pepsin”. Also, at porcine pepsin [3], the “inhibition of pepsin activity” value is recorded as “inhibition of pepsin activity” and the IC50 for pepsin entry is given as “low micromolar range; also recorded: lowest IC50”.
